Structures can show the parent of a compound that is named as a salt.
What was measured:
[1] = system: MKN45 cell line (cell line expressing active RON); test: Cell growth inhibition MTS assay on MKN45; assay type: cell-based; settings: Homo sapiens, MKN-45, 48 hours, read-out: Growth inhibitory capacity on MKN45 cells, IC50
Method: MTS assay was performed to identify whether the compound according to the present invention has a cancer cell proliferation inhibitory effect through inhibition of extracellular signal-regulated kinase activity.
The following assay was performed on MKN45 cell line (cell line expressing active RON), a human gastric cancer cell line. The MKN45 cell line was dispensed at a concentration of 5,000 cells/well in a 96-well plate containing RPMI-1640 medium (Gibco, Invitrogen) containing 10% FBS, and then the plate was incubated for 24 hours at a condition of 5% CO2 and 37° C. Then, the respective wells were subjected to treatment with the compounds prepared in the examples, each of which was sequentially diluted from its high concentration of 10 μM. For a solvent control, the respective wells were subjected to treatment with dimethyl sulfoxide (DMSO) at the same concentrations (% (v/v)) to those used for the treatment with the compounds. Then, the respective cells were incubated for 48 hours.
In order to identify degree of viability of the cells, a mixture of MTS and phenazine methosulfate (PMS) provided in CellTiter 96 AQuous Non-Radioactive Cell Proliferation Assay Kit (Promega) was added to each cultured cell medium. Additional incubation was performed at a condition of 37° C. for 2 hours and 30 minutes. Then, absorbance was measured at 490 nm. […] In the following, A represents <10 nM, B represents 10 to 50 nM, and C represents >50 nM.

RON enzyme = RON enzyme (Homo sapiens, UniProt Q04912); test: RON activity inhibition assay (ADP-Glo); assay type: biochemical; settings: 50 uM ATP, G4Y1 peptide substrate
Method: Enzymatic reaction was allowed to proceed using 2 ng/uL of 250 uM G4Y1 peptide, which serves as a substrate for RON enzyme, and 50 uM ATP in assay buffer (40 mM Tris-HCl, pH 7.5, 20 mM MgCl2, 0.1 mg/mL bovine serum albumin, 50 uM DTT). The resultant was subjected to treatment with the compounds prepared in the examples and the comparative examples at various concentrations, and reaction was allowed to proceed at room temperature for 1 hour. Then, ADP-Glo™ Reagent and Kinase Detection Reagent were sequentially added thereto, and reaction was allowed to proceed at room temperature for 40 minutes and 30 minutes, respectively.
Subsequently, luminescence was measured using Wallaac Victor 2TM (PerkinElmer Life Sciences, 1420-042). Data were analyzed with the measured RLU values to verify activity of the RON inhibitors. The RLU value of a sample which was not treated with the compound was set as a 100% control, and the activity of the RON inhibitor was evaluated as a percentage of residual activity of the RON enzyme in the sample that was treated with the compound at the concentration to be tested.

[2] = system: colon cancer patient tissue (active RON/RON mutant #1: Δ160); test: Efficacy in animal model transplanted with colon cancer patient tissue, 30 mpk; assay type: in vivo; settings: 30 mpk for 4 weeks
Method: Example 18 and Comparative Example 1 were administered to an animal model transplanted with the same patient tissue (active RON/RON mutant #1: Δ160) cells as in the animal model transplanted with colon cancer patient tissue tumor cells at 30 mpk for 4 weeks. […] The lower pictures of FIG. 21 show tumors extracted from representative individuals of the respective groups.

KM12C (RONΔ160) [3] = test: Cell death-inducing ability, trypan blue exclusion, KM12C; assay type: cell-based, human; settings: 48 hours
Method: (§1) The cell death-inducing ability of Example 18 and Comparative Example 1 was measured in KM12C with RON mutant (Δ160), a cetuximab-resistant cell line, and Colo320HSR cell line, a cell line not expressing RON. The two colon cancer cell lines were seeded, respectively, onto 60-mm plates at 2×10^5 cells. Then, after 24 hours, while performing medium exchange, the cells were subjected to treatment with the sample compounds at respective concentrations (1 μM, 5 μM) for 48 hours. After 48 hours, the cells and cell suspensions were collected (1,500 rpm, 3 minutes), and live cells and dead cells were quantitated (n=2) through trypan blue (15250-061, Gibco) exclusion assay.

KM12C (RONΔ160) [4] = test: MTS assay KM12C (Experimental Example 6); assay type: cell-based; settings: Homo sapiens, 72 hours
Method: In MTS assay for Example 18 and Comparative Example 1, KM12C cell line was seeded at 1,000 cells per well into 96-well plates. After 24 hours, the cells were treated with various concentrations (0.000001 uM to 10 uM) of Example 18 and Comparative Example 1 in 100 ul of 10% FBS-MEM medium (Welgene) per well. Subsequently, the cells were incubated for 72 hours. Then, 20 μl of MTS solution (Promega) was added thereto, and incubation was performed for 2 hours. Then, the absorbance was measured at 490 nm. The IC50 values for Example 18 and Comparative Example 1 were calculated using GraphPad Prism™ 5 to investigate cytotoxicity.

KM12C cell line tumor = test: Efficacy in animal model transplanted with KM12C, 30 and 50 mpk (Experimental Example 11); assay type: in vivo, BALB/c nude mice; settings: once a day for 2 weeks
Method: 5-Week-old female BALB/c nude mice were purchased and acclimatized for 1 week. Then, human-derived colon cancer cell line KM12C (1.5×10^6 cells/mice) was diluted in PBS, and injected subcutaneously (100 μl) into the right dorsal side of the mice. Comparative Examples 1 and Example 18 were orally administered when the tumor reached a size of about 100 mm^3. The drug was administered at 30 mpk and 50 mpk once a day for 2 weeks, and tumor size and body weight were measured twice a week. […] After completion of the drug administration, the experimental animals were euthanized, and then the tumors were extracted and weighed to perform comparative analysis.

Colo320HSR (RON-) = test: Cell death-inducing ability, trypan blue exclusion, Colo320HSR; assay type: cell-based; settings: 48 hours
Method: as §1

Sequence of RON enzyme (Q04912 25-1400): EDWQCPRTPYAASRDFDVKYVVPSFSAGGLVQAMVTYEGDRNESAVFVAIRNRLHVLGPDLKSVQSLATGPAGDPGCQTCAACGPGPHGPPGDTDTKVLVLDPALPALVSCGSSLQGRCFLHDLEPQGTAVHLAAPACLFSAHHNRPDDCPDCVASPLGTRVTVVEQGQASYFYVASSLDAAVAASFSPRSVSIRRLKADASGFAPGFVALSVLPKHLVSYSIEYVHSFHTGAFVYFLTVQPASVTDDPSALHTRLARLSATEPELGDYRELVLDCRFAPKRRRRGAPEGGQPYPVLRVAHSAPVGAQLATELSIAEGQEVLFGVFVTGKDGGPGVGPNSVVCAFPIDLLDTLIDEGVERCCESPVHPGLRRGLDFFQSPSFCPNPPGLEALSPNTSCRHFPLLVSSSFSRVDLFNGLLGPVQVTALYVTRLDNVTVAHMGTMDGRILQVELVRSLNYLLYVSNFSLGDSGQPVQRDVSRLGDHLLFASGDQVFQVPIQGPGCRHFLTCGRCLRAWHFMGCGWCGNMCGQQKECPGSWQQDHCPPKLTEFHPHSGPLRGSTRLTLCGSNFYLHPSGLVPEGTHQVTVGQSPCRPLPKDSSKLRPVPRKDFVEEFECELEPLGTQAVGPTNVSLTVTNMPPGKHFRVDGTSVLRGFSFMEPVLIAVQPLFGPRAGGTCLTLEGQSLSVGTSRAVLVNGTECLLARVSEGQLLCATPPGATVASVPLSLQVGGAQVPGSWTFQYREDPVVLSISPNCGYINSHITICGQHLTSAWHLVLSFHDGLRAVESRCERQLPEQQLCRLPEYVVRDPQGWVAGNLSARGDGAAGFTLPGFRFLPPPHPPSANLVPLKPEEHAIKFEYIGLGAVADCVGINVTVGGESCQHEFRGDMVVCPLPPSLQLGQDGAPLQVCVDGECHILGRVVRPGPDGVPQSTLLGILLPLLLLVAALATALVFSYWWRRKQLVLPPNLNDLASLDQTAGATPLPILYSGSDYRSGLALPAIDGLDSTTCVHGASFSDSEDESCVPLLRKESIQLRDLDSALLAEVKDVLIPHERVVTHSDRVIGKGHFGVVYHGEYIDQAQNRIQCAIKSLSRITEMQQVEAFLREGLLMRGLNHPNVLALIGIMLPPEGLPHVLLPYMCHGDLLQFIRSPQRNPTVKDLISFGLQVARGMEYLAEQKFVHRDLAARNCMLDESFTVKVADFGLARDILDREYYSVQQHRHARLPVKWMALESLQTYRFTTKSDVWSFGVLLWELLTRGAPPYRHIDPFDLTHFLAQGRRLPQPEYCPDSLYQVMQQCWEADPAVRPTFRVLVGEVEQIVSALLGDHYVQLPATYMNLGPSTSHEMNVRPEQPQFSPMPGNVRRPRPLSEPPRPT

| IC50 [1] [nM] | Structure (SMILES) | also measured |
| --- | --- | --- |
| 10 to 50 | CCOc1ccn(-c2ccc(F)cc2)c(=O)c1C(=O)Nc1ccc(Oc2ccnc3cc(-c4cnn(C)c4)sc23)c(F)c1 [Example 4, 4-ethoxy-N-(3-fluoro-4-(2-(1-methyl-1H-pyrazol-4-yl)thieno[3,2-b]pyridine-7-yloxy)phenyl)-1-(4-fluorophenyl)-2-oxo-1,2-dihydropyridine-3-carboxamide] | – |
| 10 to 50 | CCOc1ccn(-c2ccc(F)cc2)c(=O)c1C(=O)Nc1ccc(Oc2ccnc3cc(-c4ccccn4)sc23)c(F)c1 [Example 5, 4-ethoxy-N-(3-fluoro-4-(2-(pyridin-2-yl)thieno[3,2-b]pyridin-7-yloxy)phenyl)-1-(4-fluorophenyl)-2-oxo-1,2-dihydropyridine-3-carboxamide] | IC50 (RON enzyme): 8.8 nM |
| > 50 | CCOc1ccn(C)c(=O)c1C(=O)Nc1ccc(Oc2ccnc3cc(-c4cn(C)cn4)sc23)c(F)c1 [Example 2, 4-ethoxy-N-(3-fluoro-4-(2-(1-methyl-1H-imidazol-4-yl)thieno[3,2-b]pyridine-7-yloxy)phenyl)-1-methyl-2-oxo-1,2-dihydropyridine-3-carboxamide] | – |
| < 10 | CCOc1ccn(-c2ccc(F)cc2)c(=O)c1C(=O)Nc1ccc(Oc2ccnc3cc(-c4cn(C)cn4)sc23)c(F)c1 [Example 1, 4-ethoxy-N-(3-fluoro-4-(2-(1-methyl-1H-imidazol-4-yl)thieno[3,2-b]pyridine-7-yloxy)phenyl)-1-(4-fluorophenyl)-2-oxo-1,2-dihydropyridine-3-carboxamide] | IC50 (RON enzyme): 11.1 nM |

Second part, the compound before the results:

| Structure (SMILES) | IC50 [1] [nM] | also measured |
| --- | --- | --- |
| CCOc1ccn(-c2ccc(F)cc2)c(=O)c1C(=O)Nc1ccc(Oc2ccnc3cc(-c4cccnc4)sc23)c(F)c1 [Example 6, 4-ethoxy-N-(3-fluoro-4-(2-(pyridin-3-yl)thieno[3,2-b]pyridin-7-yloxy)phenyl)-1-(4-fluorophenyl)-2-oxo-1,2-dihydropyridine-3-carboxamide] | 10 to 50 | – |
| CCOc1ccn(-c2ccc(F)cc2)c(=O)c1C(=O)Nc1ccc(Oc2ccnc3cc(CN4CCN(C)CC4)sc23)c(F)c1 [Example 11, 4-ethoxy-N-(3-fluoro-4-(2-((4-methylpiperazin-1-yl)methyl)thieno[3,2-b]pyridine-7-yloxy)phenyl)-1-(4-fluorophenyl)-2-oxo-1,2-dihydropyridine-3-carboxamide] | > 50 | – |
| CCOc1ccn(-c2ccc(F)cc2)c(=O)c1C(=O)Nc1ccc(Oc2ccnc3cc(CN4CCNCC4)sc23)c(F)c1 [Example 10, 4-ethoxy-N-(3-fluoro-4-(2-(piperazin-1-ylmethyl)thieno[3,2-b]pyridin-7-yloxy)phenyl)-1-(4-fluorophenyl)-2-oxo-1,2-dihydropyridine-3-carboxamide hydrochloride] | > 50 | – |
| COCn1cnc(-c2cc3nccc(Oc4ccc(NC(=O)c5c(OC)ccn(-c6ccccc6)c5=O)cc4F)c3s2)c1 [Example 9, 4-methoxy-N-(3-fluoro-4-(2-(1-(methoxymethyl)-1H-imidazol-4-yl)thieno[3,2-b]pyridin-7-yloxy)phenyl)-1-phenyl-2-oxo-1,2-dihydropyridine-3-carboxamide] | 10 to 50 | – |
| CCOc1ccn(-c2ccc(F)cc2)c(=O)c1C(=O)Nc1ccc(Oc2ccnc(N)c2Cl)c(F)c1 [Comparative Example 1, N-{4-[(2-amino-3-chloro-4-pyridinyl)oxy]-3-fluorophenyl}-4-ethoxy-1-(4-fluorophenyl)-2-oxo-1,2-dihydro-3-pyridinecarboxamide, reference compound] | – | tumor growth inhibition efficacy [2]: about 18%; Cell death, KM12C (RONΔ160) (KM12C (RONΔ160) [3]; 1 μM): 11.7; Cell death, KM12C (RONΔ160) (KM12C (RONΔ160) [3]; 5 μM): 21.1; IC50 (KM12C (RONΔ160) [4]): 358 nM; TGI (%) (KM12C cell line tumor; 30 mg/kg oral): 82.4%; TGI (%) (KM12C cell line tumor; 50 mg/kg oral): 83.7%; tumor growth inhibition efficacy (KM12C cell line tumor; 30 mpk and 50 mpk oral): very high tumor growth inhibition efficacy; Cell death, Colo320HSR (RON-) (Colo320HSR (RON-); 1 μM): 5.9; Cell death, Colo320HSR (RON-) (Colo320HSR (RON-); 5 μM): 8.2 |
| CCOc1ccn(-c2ccc(F)cc2)c(=O)c1C(=O)Nc1ccc(Oc2ccnc3cc(-c4nccs4)sc23)c(F)c1 [Example 7, 4-ethoxy-N-(3-fluoro-4-(2-(thiazol-2-yl)thieno[3,2-b]pyridin-7-yloxy)phenyl)-1-(4-fluorophenyl)-2-oxo-1,2-dihydropyridine-3-carboxamide] | > 50 | – |
| CCOc1ccn(Cc2ccc(F)cc2)c(=O)c1C(=O)Nc1ccc(Oc2ccnc3cc(-c4cn(CC)cn4)sc23)c(F)c1 [Example 8, 4-ethoxy-N-(4-(2-(1-ethyl-1H-imidazol-4-yl)thieno[3,2-b]pyridin-7-yloxy)-3-fluorophenyl)-1-(4-fluorobenzyl)-2-oxo-1,2-dihydropyridine-3-carboxamide] | > 50 | – |
| CCOc1ccn(-c2ccc(F)cc2)c(=O)c1C(=O)Nc1ccc(Oc2ccnc3cc(-c4nccn4C)sc23)c(F)c1 [Example 3, 4-ethoxy-N-(3-fluoro-4-(2-(1-methyl-1H-imidazol-2-yl)thieno[3,2-b]pyridine-7-yloxy)phenyl)-1-(4-fluorophenyl)-2-oxo-1,2-dihydropyridine-3-carboxamide] | 10 to 50 | – |

From patent US20230172914A1, “BIOMARKER-BASED THERAPEUTIC COMPOSITION” (WELLMARKER BIO CO., LTD., priority 2019, published 2023)
